Legend:
[1] = In vivo delivery of small RNA into mouse blood, stomach, small intestine and liver via gavage (RT-qPCR); conditions: Example 11; 10 μL single lipid + sRNA 1 nmol each, heating method; 12 hours
Method: [Experimental method] 6-8 weeks old mice, 22-24 g, were raised in SPF room of the Animal Center of the Institute of Basic Medical Sciences of Chinese Academy of Medical Sciences. The mice were fasted for 12 hours before intragastric administration. The mice were randomly divided into 3 groups: (1) control group, 400 μl DEPC-treated water, intragastric administration; (2) free uptake group, small RNA (PGY-sRNA-26, PGY-sRNA-32 and PGY-sRNA-23), each small RNA 1 nmol/animal, dissolved in 400 μl DEPC-treated water, intragastric administration; (3) lipid No. 41 group: a mixture of small RNA (PGY-sRNA-26 and PGY-sRNA-32) and lipid No. 41 prepared by heating method was intragastrically administered, each small RNA 1 nmol/animal, lipid No. 41 10 μl/animal, dissolved in 400 μl DEPC-treated water. All tissue and organ samples were collected after 6 hours of intragastric administration. All small RNAs were single-stranded RNA modified by 3p-terminal 2-O-methylation.
After 12 hours, the sample was collected to detect the amount of entry. In Vivo Delivery Experiment of Lipid Nucleic Acid Mixture • 1. […] LightCycler 480 fluorescence quantitative PCR instrument was used, and the PCR reaction conditions were: 95° C., 5 min for pre-denaturation, followed by the PCR amplification cycle: (1) 95° C., 10 s; (2) 55° C., 10 s; (3) 72° C., 20 s; a total of 40 cycles; 40° C. for 10 s in the end to cool down. […]

A549 cells [2] = assay: RT-qPCR detection of nucleic acid delivered by lipid into A549 cells; assay type: cell-based, human; conditions: HJT-sRNA-m7 double-stranded RNA, reverse evaporation method
A549 cells [3] = assay: Confocal fluorescence microscopy of lipid-delivered nucleic acid in A549 cells; assay type: cell-based, human; conditions: boiling method; 6 hours
Method: (§1) […] Then the mixture was dropped into A549 cells, and after 6 hours of co-incubation, the samples were washed three times with PBS, fixed with 4% paraformaldehyde, washed three times with PBS, stained with Alexa Fluor® 488 phalloidin for 30 min, washed 3 times with PBS, and stained with DAPI for 5 min, washed with PBS, and then sealed.
as §1, with “Then,” for “Then”, “PBS washed,” for “washed with PBS,”

A549 cells [4] = assay: Confocal fluorescence microscopy of green fluorescent protein delivered by lipid into A549 cells; assay type: cell-based, human; conditions: reverse evaporation method; 6 hours
Method: Experimental method: The bencaosome was prepared by reverse evaporation method. 0.2 nmol green fluorescent protein dissolved in 20 μl water was added to 100 μl ether solutions containing 0 μg, 0.25 μg, 0.75 μg lipid respectively. After fully mixing, sonication was conducted for 3 min. After evaporated at 60° C. to remove organic solvent, the bencaosome solution was obtained by hydrating with 100 μL opti-MEM. Then the bencaosome was added to A549 cells and co-incubated for 6 hours. The samples were collected and tested. After washing three times with PBS, the samples were fixed with 4% paraformaldehyde. After washing three times with PBS, the samples were stained with Alexa Fluor® 488 phalloidin for 30 min. After washing three times with PBS, the samples were stained with Dapi for 5 min, then washed with PBS and sealed for observation.

fibronectin and α-SMA = assay: Fibronectin/α-SMA protein expression in TGF-β1-stimulated MRC-5 cells after small RNA delivered by lipid or bencaosome (Western blot); assay type: cell-based, human; conditions: Examples 5 and 8; nucleic acid 400 nM; TGF-β1 3 ng/mL, 72 hours
A549 cells [5] = assay: Flow cytometry of green fluorescent protein delivered by lipid into A549 cells; assay type: cell-based, human; conditions: 10 μg/mL lipid; reverse evaporation method; 6 hours
Method: (§2) Experimental method: The bencaosome was prepared by reverse evaporation of ether. 0.2 nmol green fluorescent protein dissolved in 20 μl water was added to 100 μl ether solutions containing 0 μg, 1 μg, 3 μg lipid respectively. After fully mixing, sonication was conducted for 3 min. After evaporation at 60° C. to remove organic solvent, the bencaosome solution was obtained by hydrating with 100 μL opti-MEM. Then the bencaosome was added to A549 cells and co-incubated for 6 hours. The samples were collected and tested. After washing three times with PBS, the samples were digested with trypsin for three minutes. The trypsin was removed, and then the samples were washed with PBS and blown off. Accuri® C6 instrument was used to measure.
as §2, with “method.” for “of ether.”, “The trypsin was removed, and then the samples were washed with PBS and blown off. Accuri® C6 instrument was used to measure.” left out

A549 cells [6] = assay: Digital PCR (ddPCR) detection of nucleic acid delivery by lipid into A549 cells; assay type: cell-based, human; conditions: single lipid; boiling or reverse evaporation method
Method: Referring to the QX200 Droplet Reader and QuantaSoft Software manual for the protocols, the results were analyzed using QuantaSoft software.
2.2 Experimental method: total RNA was collected and extracted by TRIzol lysis buffer according to the above method, and reverse transcribed to cDNA using High capacity cRNA Reverse Transcription Kit, and the cDNA from different groups was subjected to digital PCR reaction.
2.2 Experimental method: Total RNA was collected and extracted by TRIzol lysis buffer according to the above method, and reverse transcribed to cDNA using TaqMan™ MicroRNA Reverse Transcription KitHigh, and the cDNA from different groups was subjected to digital PCR reaction.
2.2 Experimental method: Total RNA was collected and extracted by TRIzol lysis buffer according to the above method, and reversed to cDNA using High capacity CRNA Reverse Transcription Kit, and the cDNA from different groups was subjected to digital PCR reaction.

## CCCCCCCC/C=C\CCCCCCCCCCCC(=O)O[C@H](COC(=O)CCCCCCCCCCCCCCC)COP(=O)(O)OCCN [lipid No. 40, PE(16:0/22:1)]
[1]
  delivery of sRNA single-stranded nucleic acid into mouse blood via oral administration: the delivery effect was better than POPC and Lipofectamine RNAiMAX
A549 cells [2]
  delivery effect of lipid compared with RNAiMAX (RT-qPCR): ½
A549 cells [3]
  entry of PGY-sRNA-6-Cy3 into A549 cells (confocal microscopy): could effectively deliver single-stranded RNA into A549 cells
A549 cells [4]
  entry of green fluorescent protein into A549 cells (confocal microscope): could effectively deliver protein into A549 cells
Fibronectin and α-SMA
  inhibition by HJT small RNA at protein level in MRC-5 cells (Western blot): mediated anti-fibrotic double-stranded RNA HJT-sRNA-m7 entry into MRC-5 cells to down-regulate fibronectin protein expression
A549 cells [5]
  efficiency to deliver green fluorescent protein into A549 cells: 7.2%
A549 cells [6]
  delivery of HJT-sRNA-m7 dsRNA into A549 cells (ddPCR): could effectively deliver HJT-sRNA-m7 dsRNA into A549 cells
